Test [1] has as its system Jurkat cells. Nature of the test: Inhibitory action for G2 checkpoint using Jurkat cells (cell cycle by FACS). The format is cell-based, human. As to conditions: for IC50: Homo sapiens; for selectivity: specificity to the G2 phase cells, Table 1; for differences between both concentrations: IC50 (col) versus IC50 (bleo). The method, then:
(§1) An assay method of G2 arrest activity with treatment of anticancer agent using cancer cells is performed according to the method of Suganuma et al. (Cancer Research, […]: 5887-5891, 1999).
Jurkat cells derived from human lymphoma were cultured in RPMI 1640 medium (a medium adding an inactivated fetal bovine serum (JRH Bioscience Inc.) 50 ml and a mixture 50 ml of penicillin (10,000 units/ml) and streptomycin (10 mg/ml) (Invitrogen Inc.) in RPMI 1640 (IWAKI Co., Ltd.) 500 ml) by using a 75 cm^3 culture flask. After centrifugation of the Jurkat cells at 1, 000 rpm for 10 minutes, the supernatant was removed by using aspirator to adjust the number of cells to be 5 × 10^5 cells/ml with addition of RPMI 1640 medium. Bleomycin (Nippon Kayaku Co., Ltd.) or colchicines (Sigma Inc.) was added to be the final concentration of 40 µM or 0.5 µM, respectively, into the cell suspension. The suspension was added into each well of 96 well multiplate (Corning Corp., the U.S.), which was previously air dried after adding FKI-2342A - F substances 200 µl (1 × 10^5 cells/well) in each well, and incubated at 37°C for 20 hours.
Cells after culturing for 20 hours were centrifuged at 1,000 rpm for 10 minutes, and the supernatant was removed by using aspirator. Krishan's reagent (trisodium citrate (Wako Pure Chemical Industries, Ltd.) […], IGEPALCA-630 (Sigma Inc.) 1.5 ml, ribonuclease A (Sigma Inc.) 10 mg and propydium iodide (Sigma Inc.) 25 mg dissolved in sterilized water 50.0 ml) […] was added to each well. The well was covered with aluminum foil for light shielding and allowed to stand at room temperature for 1 hour with gently shaking by the shaker to perform DNA staining. Measurement of cell cycle was performed by measuring 10,000 cells using FACS Caliber (Becton Dickinson Inc.) to calculate ratio of cells in sub G1, G1, S, and G2/M phase by using analytical software Ce 11 Quest.
Experimental results in relation to FKI-2342A substance - F substance were obtained by using the index of the G2/M phase cell. A concentration of substance wherein the number of cells at G2 phase is reduced to 50% when the number of cells arrested at G2 phase by treatment with bleomycin is set as 100%, is calculated as IC50 (bleo), and similarly a concentration of substance wherein the number of cells at M phase is reduced to 50% is calculated as IC50 (col), and the specificity to the G2 phase cells as the selectivity is shown in Table 1.
(Flow cytometry measures light scatter and fluorescence of single cells or particles in a stream.)

Test [2] concerns HCT-116 cells. Nature of the test: Inhibitory action for G2 checkpoint using HCT-116 cells (cell cycle by FACS). To be noted: for IC50: Homo sapiens, 24 hours; for Selectivity IC50(col) /IC50(bleo): Table 2. The format is cell-based, human. The method, then: as §1
A cell suspension (15 ml) of HCT-116 cells derived from human colon cancer, adjusted to 1.5 × 10^5 cells/ml with McCoy's medium, was cultured in McCoy's 5A medium (a medium adding an inactivated fetal bovine serum (FBS) […] and a mixture 5 ml of penicillin (10,000 units/ml) and streptomycin (10 mg/ml) in McCoy's 5A (Invitrogen Inc.) 500 ml) in a 75-cm^3 culture flask (Corning Corp., the U.S.) under the atmosphere of […] at 37°C, and a subinoculation was performed after 3 days.
HCT-116 cells (500 µl) adjusted to give 1.5×10^5 cells/ml. were added into each well of a 24-well microplate (IWAKI Co., Japan) and incubated at 37°C for 24 hours. Thereafter, the medium was removed and 250 µl of 27 µM bleomycin or that of 0.5 µM colcicine prepared with McCoy's 5A medium were added in each well, and FKI-2342A substance - FKI-2342F substance dissolved in 0.5% DMSO, each 250 µl, were added (final concentration: bleomycin 13 µM, colchicine 0.25 µM, and 0.25% DMSO). The plate was incubated under […] at 37°C for 24 hours. After the incubation, the supernatant was recovered in 1.5 ml Eppendorf tube and stored on ice. Cells on the plate were detached by adding trypsin-EDTA solution (150 µl) and culturing at 37°C for 10 minutes. Immediately after the cells were detached, 300 µl of the medium were added to denature the trypsin, and were mixed with the supernatant which was stored on the ice. The mixture was centrifuged at 1,000 rpm for 10 minutes, and the supernatant was removed by using the aspirator, then Krishan's reagent (200 µl) was added thereto, and after allowing to stand for 1 hour, measurement was performed by using FACS.
Measurement of cell cycle was performed by measuring 10,000 cells using FACS Caliber (Becton Dickinson Inc.) to calculate ratio of cells in sub G1, G1, S, and G2/M phase by using analytical software cell Quest.
Experimental results in relation to FKI-2342A substance - F substance were obtained by using the index of the G2/M phase cell. A concentration of substance, in which the number of cells at G2 phase is reduced to 50% when the number of cells arrested at G2 phase by treatment with bleomycin is' set as 100%, is calculated as IC50 (bleo), and similarly a concentration of substance, in which the number of cells at M phase is reduced to 50%, is calculated as IC50 (col), and the specificity to the G2 phase cells as the selectivity is shown in Table'2.

Setting [3] is: cells arrested at G2 phase by bleomycin 40 µM reduced to 50%, 20 hours, Table 1, read-out: IC50 bleomycin.
The mark [4] stands for this setting: cells at M phase (colchicine 0.5 µM) reduced to 50%, 20 hours, Table 1, read-out: IC50 colchicine.
Setting [5] is: cells arrested at G2 phase by bleomycin 13 µM reduced to 50%, read-out: IC50 bleomycin.
The mark [6] stands for this setting: cells at M phase (colchicine 0.25 µM) reduced to 50%, read-out: IC50 colchicine.
[7] abbreviates: cells arrested at G2 phase by bleomycin reduced to 50%, read-out: IC50 (bleo).
Setting [8] is: cells at M phase (colchicine) reduced to 50%, read-out: IC50 (col).

Values after ≈ are worked out from the molar mass of the structure shown. Where two headings read alike, the source gives them in different places.

A word on the IC50: it is the concentration at which inhibition is half-maximal.

As to `C=C(C(=O)O)C(CCCC(=O)OC)C(=O)OC` (centres unmarked) [A], the IC50 in test [1] (setting [3]) amounted to 100 µg/mL (≈ 409 µM); in test [1] (setting [4]), 200 µg/mL (≈ 819 µM); in test [2] (setting [5]) it was 120 µg/mL (≈ 491 µM); in test [2] (setting [6]), 180 µg/mL (≈ 737 µM). The selectivity in test [1] is given as 2. Moreover, the “Selectivity IC50(col) /IC50(bleo)” value in test [2] worked out at 2.
`C=C(C(=O)O)C(CCCCCC(=O)OC)C(=O)O` (centres unmarked) [B]: the IC50 in test [1] (setting [3]) came to 100 µg/mL (≈ 387 µM); in test [1] (setting [4]) it was 200 µg/mL (≈ 774 µM); in test [2] (setting [5]), 120 µg/mL (≈ 465 µM); in test [2] (setting [6]) it was 180 µg/mL (≈ 697 µM). Also, in test [1], the selectivity was determined as 2. Besides, the “Selectivity IC50(col) /IC50(bleo)” value in test [2] is on record as 2.
For the compound `C=C(C(=O)O)C(CCCCCC(=O)OCC)C(=O)O` (centres unmarked) [C], the IC50 was found to be 100 µg/mL (≈ 367 µM) in test [1] (setting [3]), 200 µg/mL (≈ 734 µM) in test [1] (setting [4]), 120 µg/mL (≈ 441 µM) in test [2] (setting [5]) and 180 µg/mL (≈ 661 µM) in test [2] (setting [6]). In addition, the selectivity in test [1] stood at 2. Further, the “Selectivity IC50(col) /IC50(bleo)” value in test [2] turned out to be 2.
`C=C(C(=O)O)C(CCCCCC(=O)OC)C(=O)OC` (centres unmarked) [D]: the IC50 worked out at 25 µg/mL (≈ 91.8 µM) in test [1] (setting [3]); 25 µg/mL (≈ 91.8 µM) in test [1] (setting [7]); 175 µg/mL (≈ 643 µM) in test [1] (setting [4]); 175 µg/mL (≈ 643 µM) in test [1] (setting [8]); 25 µg/mL (≈ 91.8 µM) in test [2] (setting [5]); 100 µg/mL (≈ 367 µM) in test [2] (setting [6]). Also, the “differences between both concentrations” value in test [1] is given as 7 fold. In test [1], this compound displayed a selectivity of 7. Moreover, the “differences in a concentration ratio (IC50 (col) / IC50 (bleo))” value in test [2] amounted to 4 fold. Further, the “Selectivity IC50(col) /IC50(bleo)” value in test [2] was found to be 7.
As for `C=C(C(=O)O)C(CCCCCCCC(=O)OC)C(=O)O` (centres unmarked) [E], the IC50 in test [1] (setting [3]) was 1.2 µg/mL (≈ 4.19 µM); in test [1] (setting [7]) it was 1.2 µg/mL (≈ 4.19 µM); in test [1] (setting [4]) it was 10 µg/mL (≈ 34.9 µM); in test [1] (setting [8]), 10 µg/mL (≈ 34.9 µM); in test [2] (setting [5]) it was 2 µg/mL (≈ 6.99 µM); in test [2] (setting [6]), 20 µg/mL (≈ 69.9 µM). Besides, the “differences between both concentrations” value in test [1] was determined as 8 fold. The compound further returned a selectivity in test [1] of 8. The “differences in a concentration ratio (IC50 (col) / IC50 (bleo))” value in test [2] came to 10 fold. In test [2], the “Selectivity IC50(col) /IC50(bleo)” value is 8.
With `C=C(C(=O)O)C(CCCC(=O)OCC)C(=O)O` (centres unmarked) [F], the IC50 in test [1] (setting [3]) stood at 100 µg/mL (≈ 409 µM); in test [1] (setting [4]), 200 µg/mL (≈ 819 µM); in test [2] (setting [5]) it was 100 µg/mL (≈ 409 µM); in test [2] (setting [6]) it was 180 µg/mL (≈ 737 µM). Also, the selectivity in test [1] is listed as 2. In addition, in test [2], the “Selectivity IC50(col) /IC50(bleo)” value was determined as 2.

The record behind these values is EP1988171A1, “SUBSTANCE FKI-2342 AND PROCESS FOR PRODUCTION THEREOF” (THE KITASATO INSTITUTE, priority 2006, dated 2007).
